Data from patent US20140314746A1, “METHODS FOR TREATING OR PREVENTING FIBROSIS IN SUBJECTS AFFLICTED WITH SCLERODERMA” (Philadelphia Health and Education Corporation, d/b/a Drexel …, priority 2013, published 2014).

Columns and labels:
SSc fibroblasts = experiment: Hydroxyproline secretion by SSc fibroblasts treated with glyburide or parthenolide; details: 100 μM glyburide or 10 μM parthenolide; media of 24 h and further 24 h
Description: SSc fibroblasts were cultured in 5 ml of media with 100 μM glyburide (G) or 10 μM parthenolide (P). After 24 h the media was collected and the fibroblasts given an additional 5 ml of media with 100 μM glyburide or 10 μM parthenolide and cultured for a further 24 h. Media from both time points was assayed for hydroxyproline. Three independent experiments were performed in and assayed in triplicate. Data is presented as means±SEM. G=glyburide, P=parthenolide.
SSc fibroblasts were treated for 24 h with 100 μM Glyburide or 10 μM Parthenolide. The media was replaced with fresh after 24 h with 100 μM Glyburide or 10 μM Parthenolide and cultured for an additional 24 h. The culture media was assayed for hydroxyproline.

[1] = tested on: mouse models of acute gout; details: in vivo; cited from earlier work
mouse dermal fibroblasts = experiment: Hydroxyproline secretion by mouse dermal fibroblasts stimulated with bleomycin; assay type: cell-based; details: for hydroxyproline secreted: 48 h
Description: (§1) Normal human dermal fibroblasts (n=4) were purchased from the Coriell Institute (Camden, N.J.) and normal lung fibroblasts (n=3) were obtained from the University of Pittsburgh. Normal and SSc dermal fibroblasts (750,000 cells/dish) were cultured in DMEM (Mediatech Inc., Manassas Va.) supplemented with 10% FBS (Mediatech) and 1% penicillin/streptomycin (Mediatech). Protein lysates were collected for western blotting and media was collected for ELISA and hydroxyproline assays. SSc fibroblasts were treated with 20 μM caspase-1 inhibitor, Benzyloxycarbonyl-Tyr-Val-Ala-Asp(OMe)-fluoromethylketone (Z-YVAD(OMe)-FMK; Enzo Life Sciences, Plymouth Meeting Pa.) for 48 h. Fibroblasts from NLRP3−/−, and ASC−/− and C57BL/6 mice (Jackson Laboratories, Bar Harbor Me.) were established from skin and were treated with 1 μM bleomycin and 20 μM Z-YVAD(OMe)-FMK for 48 h.
(§2) Total collagen secreted into media was measured by hydroxyproline (Woessner, 1961, Arch Biochem Biophys 93:440-7). Absorbances were read in a spectrophotometer at 550 nm and the concentration of hydroxyproline was determined against a standard curve of hydroxyproline.

fibroblasts = assay type: cell-based
Description: as §1

SSc lung fibroblasts [2] = experiment: IL-1β secretion by SSc lung fibroblasts (ELISA of media); assay type: cell-based, human; details: SSc lung fibroblasts (n=3), 20 μM inhibitor, 48 h; untreated 19.7±0.4
Description: as §1
(§3) Media from SSc and normal fibroblasts were assayed by ELISA for IL-1β (Thermo Scientific, Rockford Ill.) and IL-18 (MBL, Woburn Mass.) according to the manufacturer's recommendations. […] The sensitivity of the IL-1β ELISA was 2.6 pg/ml and the sensitivity of the IL-18 was 12 pg/ml.

SSc lung fibroblasts [3] = experiment: Hydroxyproline (total collagen) secretion by SSc lung fibroblasts; assay type: cell-based, human; details: 20 μM inhibitor, 48 h, untreated 216.1±18.5
Description: as §1, §2

SSc lung fibroblasts [4] = experiment: IL-18 secretion by SSc lung fibroblasts (ELISA of media); assay type: cell-based, human; details: SSc lung fibroblasts (n=3), 20 μM inhibitor, 48 h; untreated 743.9±6.4
Description: as §1, §3

SSc dermal fibroblasts [5] = experiment: Western blot of secreted COL1A1 and COL3A1, SSc dermal fibroblasts; assay type: cell-based, human; details: 48 h
Description: as §1
(§4) 30 μl of media was size fractionated on a 5% SDS polyacrylamide gel (Invitrogen, Carlsbad Calif.) and the proteins transferred to a PVDF membrane (Invitrogen). Non-specific binding sites were blocked and then probed with rabbit-anti-human COL1A1, COL3A1, or α-SMA (Santa Cruz Biotechnologies, Santa Cruz Calif.) overnight at 4° C. The membrane was washed and incubated with goat anti-rabbit-HRP (1:5000) (Jackson Immunoresearch, West Grove Pa.). […] The intensity of the bands was measured by ImageJ (http://rsbweb dot nih dot gov/ij/).

SSc dermal fibroblasts [6] = experiment: Western blot of α-SMA in SSc dermal fibroblasts; assay type: cell-based, human; details: 48 h
Description: 30 μl of media was size fractionated on a 5% SDS polyacrylamide gel (Invitrogen, Carlsbad Calif.) and the proteins transferred to a PVDF membrane (Invitrogen). Non-specific binding sites were blocked and then probed with rabbit-anti-human COL1A1, COL3A1, or α-SMA (Santa Cruz Biotechnologies, Santa Cruz Calif.) overnight at 4° C. The membrane was washed and incubated with goat anti-rabbit-HRP (1:5000) (Jackson Immunoresearch, West Grove Pa.). The HRP signal was developed with SuperSignal Chemiluminescent Substrate (Pierce). The intensity of the bands was measured by ImageJ (http://rsbweb dot nih dot gov/ij/).
80% confluent fibroblasts were cultured in serum free Opti-MEM and transfected with siRNA targeting caspase-1 (Santa Cruz) for 48 h, with an additional transfection of the siRNA duplex after 24 h. Cells were harvested for protein for Western blotting and the media was saved for hydroxyproline and IL-1β and IL-18 measurements and cells were lysed for α-SMA detection.

SSc dermal fibroblasts [7] = experiment: IL-18 secretion by SSc dermal fibroblasts (ELISA of media); assay type: cell-based, human; details: SSc dermal fibroblasts (n=4), 20 μM inhibitor, 48 h; untreated 23.9±1.0
Description: as §1, §3
(§5) 80% confluent fibroblasts were cultured in serum free Opti-MEM and transfected with siRNA targeting caspase-1 (Santa Cruz) for 48 h, with an additional transfection of the siRNA duplex after 24 h. […]

SSc dermal fibroblasts [8] = experiment: IL-1β secretion by SSc dermal fibroblasts (ELISA of media); assay type: cell-based, human; details: SSc dermal fibroblasts (n=4), 20 μM inhibitor, 48 h, untreated 41.1±5.6
Description: as §1, §3, §5

[9] = tested on: SSc dermal myofibroblasts; experiment: Immunofluorescence of α-SMA and f-actin in SSc dermal myofibroblasts; assay type: cell-based, human; details: 48 h
Description: SSc dermal fibroblasts were cultured in chamber slides to 80% confluency and treated with Z-YVAD(OMe)-FMK for 48 h, air dried then fixed with 4% paraformaldehyde for 20 min. Slides were washed with 1×PBS and blocked with 5% goat serum. Primary antibody to α-SMA (1:100, Clone #1A4, Abcam, Cambridge Mass.) and applied to the cells for 40 min, then washed in PBS. Cy2-conjugated goat-anti-mouse (1:200, Jackson ImmunoResearch, West Grove Pa.) was applied to the cells for 40 min, and then washed. Rhodamine phalloidin (1:100, Cytoskeleton, Denver Colo.) was applied to the cells for 15 min, then the cells were washed with PBS, counterstained with DaPI (Invitrogen), visualized with a Nikon Eclipse 80i epi-fluorescent microscope, and photographed at 400× magnification. All images (red for f-actin, green for α-SMA, and triple for simultaneous detection of f-actin, α-SMA and nuclei) were captured at 6 sec, Gain=2, Gamma=0.5.

SSc dermal fibroblasts [10] = experiment: Hydroxyproline (total collagen) secretion by SSc dermal fibroblasts; assay type: cell-based, human; details: 20 μM inhibitor, 48 h, untreated 18.73±2.33
Description: as §1, §2, §5

SSc lung fibroblasts [11] = experiment: Western blot of secreted COL1A1 and COL3A1, SSc lung fibroblasts; assay type: cell-based, human; details: 48 h
Description: as §1, §4

interleukin-1β = details: cited from earlier work
[12] = tested on: other members of the interleukin-1 family, including interleukin-1 alpha; details: cited from earlier work
[13] = tested on: C57Bl/6, NLRP3−/− and ASC−/− mice; experiment: Murine bleomycin-induced model of fibrosis (skin thickness, lung pathology); assay type: in vivo, mouse
Description: All animals were housed in the University Laboratory Animal facility and fed ad libitum. Pathogen free C57Bl/6 mice (n=7) were purchased from Jackson Laboratories. […] Seven untreated C57BL/6 mice were assessed for skin thickness and lung pathology. Dermal fibrosis was induced by daily subcutaneous administration of 100 μl of a 1 mg/ml of bleomycin (BioMol, Plymouth Meeting Pa.) in the flank for 28 days. At the same time 100 μl sterile PBS was administered by subcutaneous injection in the contralateral flank of the same mouse according to the method of Yamamoto et al. (Yamamoto et al., 1999, J Invest Dermatol 112:456-62). Mice were euthanized and tissue from both injection sites was harvested, along with lung tissue. Tissues were fixed, embedded in paraffin, and sectioned onto positively charged slides, then stained with Masson's Trichrome and photographed. Collagen was measured in the skin from just below the epidermis to the fat layer. Two images were taken at 100× magnification. Six measurements were taken for each image using the Advanced SpotCam software and expressed as skin thickness in microns±SEM and fold change in skin thickness.

For `COc1ccc(Cl)cc1C(=O)NCCc1ccc(S(=O)(=O)NC(=O)NC2CCCCC2)cc1` [Glyburide, 5-chloro-N-(4-[N-(cyclohexylcarbamoyl)sulfamoyl]phenethyl)-2-methoxybenzamide], the “hydroxyproline secretion by SSc fibroblasts” value (SSc fibroblasts) was “significantly reduce”.
In the case of “XOMA-052: a potent anti-IL-1β humanized neutralizing antibody”, the “activity in mouse models of acute gout” value [1] is given as “active”.
With `COC(=O)C[C@H](NC(=O)[C@H](C)NC(=O)[C@@H](NC(=O)[C@H](Cc1ccc(O)cc1)NC(=O)OCc1ccccc1)C(C)C)C(=O)CF` [Z-YVAD(OMe)-FMK, Benzyloxycarbonyl-Tyr-Val-Ala-Asp(OMe)-fluoromethylketone] the hydroxyproline secreted (mouse dermal fibroblasts; C57BL/6 fibroblasts, 1 μM bleomycin plus 20 μM inhibitor) was 5.9 ± 0.7 µg/mL, the “apoptosis” value (fibroblasts) was “did not interfere with cell proliferation or induce apoptosis” and the IL-1β secreted (SSc lung fibroblasts [2]) was 7.2 ± 0.2 pg/mL. The hydroxyproline secreted (SSc lung fibroblasts [3]) was 132.0 ± 22.8 µg/mL, the IL-18 secreted (SSc lung fibroblasts [4]) was 311.6 ± 18.5 pg/mL and the “Secreted COL1A1 protein (densitometry)” value (SSc dermal fibroblasts [5]; untreated 11.4±1.3 AU) was 8.9±1.0 AU. For the same molecule, the “COL3A1 protein (densitometry)” value (SSc dermal fibroblasts [5]; untreated 14.7±3.1 AU) was 8.6±2.5 AU, the “Decrease of α-smooth muscle actin by Western” value (SSc dermal fibroblasts [6]; after normalization for β-actin) was “approximately 50%” and the “α-SMA protein by Western, normalized for β-actin loading” value (SSc dermal fibroblasts [6]; untreated 1.07±0.15) was 0.54±0.14. It also gave an IL-18 secreted (SSc dermal fibroblasts [7]) of 15.2 ± 1.5 pg/mL, an IL-1β secreted (SSc dermal fibroblasts [8]) of 12.0 ± 1.6 pg/mL and an IL-1β secreted (SSc dermal fibroblasts [8]; listed as YVAD) of 12.0 pg/mL. The “F-actin MFI” value ([9]; SSc dermal cells, untreated 37.8±3.09) was 39.6±2.9 MFI, the “F-actin staining” value ([9]; SSc dermal myofibroblasts) was “unaffected” and the “Mean fluorescent intensity (MFI) of α-SMA after correction for f-actin MFI” value ([9]; SSc dermal myofibroblasts, untreated 1.03±0.05) was 0.68±0.04. The “Mean fluorescent intensity of α-SMA” value ([9]; SSc dermal myofibroblasts, untreated 38.9±2.4) was 27.6±2.5, the hydroxyproline secreted (SSc dermal fibroblasts [10]) was 5.19 ± 0.94 µg/mL and the “COL1A1 secretion” value (SSc lung fibroblasts [11]; p=0.051) was “trend for the reduction”. The “COL3A1 protein (densitometry)” value (SSc lung fibroblasts [11]; untreated 12.3±3.8 AU) was 5.5±1.2 AU.
In the case of `CSc1ccc(-c2nn(Cc3ccccc3)c(=O)cc2-c2ccc(Cl)cc2)cc1` [K-832, 2-benzyl-5-(4-chlorophenyl)-6-[4-(methylthio)phenyl]-2H-pyridazin-3-one], the “inhibitory activity against production of interleukin-1β” value (interleukin-1β) is given as “high inhibitory activity”.
In the case of “Canakinumab: a human monoclonal antibody targeted at interleukin-1 beta”, the “cross-reactivity with other members of the interleukin-1 family” value [12] is given as “no cross-reactivity”.
In the case of bleomycin, the “hydroxyproline secretion” value (mouse dermal fibroblasts; ASC−/− and NLRP3−/− fibroblasts, 1 μM bleomycin, p>0.43) is reported as “not induced”, the hydroxyproline secreted (mouse dermal fibroblasts; C57BL/6 fibroblasts stimulated with 1 μM bleomycin, unstimulated 10.6±3.8) is reported as 42.8 ± 2.9 µg/mL and the “fold induction of skin thickness” value ([13]; ASC−/− mice, bleomycin vs PBS injected skin) is reported as 1.06 fold. The average skin thickness ([13]; C57Bl/6 mice, bleomycin 100 μg daily s.c. 28 days, PBS injected skin 320.7±40.6) was 504.4±66.7 microns, the “fold increase in skin thickness” value ([13]; C57Bl/6 mice, bleomycin vs PBS injected skin) was 1.54±0.11 fold and the “fold induction of skin thickness” value ([13]; NLRP3−/− mice, bleomycin vs PBS injected skin) was 1.10 fold. For the same molecule, the “lung pathology” value ([13]; wild-type C57Bl/6 mice, bleomycin s.c. 28 days) was “developed extensive pulmonary fibrosis”.
